Reference: US20230339851A1, “CXCR6 SULFONAMIDE COMPOUNDS” (CHEMOCENTRYX, INC., priority 2022, published 2023)

Molecular target: T1, human CXCR6 (Homo sapiens, UniProt O00574)
T1 construct: expressed in transfected cells
Experiment: Radioligand Binding Assay (125I-CXCL16 displacement)
Conditions: L1.2 cells stably transfected with human CXCR6 cDNA, 0.1 nM 125I-CXCL16, 4° C., three-hour incubation; read-out: Potency (IC50)
Procedure, shortened: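 L1.2 cells stably expressing human CXCR6 incubated 3 h at 4 °C in HBSS/0.1% BSA with 0.1 nM 125I-CXCL16 and graded compound concentrations. Bound radioactivity collected by filtration and counted; IC50 from 3-parameter nonlinear regression.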

T1 sequence (O00574 whole entry): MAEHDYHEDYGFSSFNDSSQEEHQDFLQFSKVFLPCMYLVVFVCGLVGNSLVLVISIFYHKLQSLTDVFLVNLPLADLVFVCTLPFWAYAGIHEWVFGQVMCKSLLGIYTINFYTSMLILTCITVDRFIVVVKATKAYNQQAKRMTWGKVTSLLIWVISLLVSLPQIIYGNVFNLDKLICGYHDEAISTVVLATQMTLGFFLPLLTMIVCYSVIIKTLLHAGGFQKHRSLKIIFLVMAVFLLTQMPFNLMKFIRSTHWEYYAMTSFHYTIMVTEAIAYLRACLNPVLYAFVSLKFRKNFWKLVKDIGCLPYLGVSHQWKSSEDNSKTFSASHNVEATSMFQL

COc1cc(NC(=O)CC2CCOC2)ccc1S(=O)(=O)Nc1cccc(C(F)(F)F)c1 (stereo not shown) [Example 1.526]
IC50: 2000 to 20000 nM

CCOc1cc(NC(=O)C2CC=CC[C@H]2O)ccc1S(=O)(=O)Nc1ccc(C)c(OC(F)(F)F)c1 (stereo partly shown) [Example 1.029]
IC50: ≤ 200 nM

COc1cc(NC(=O)[C@@H]2CCC[C@H]2NC(=O)OC(C)(C)C)ccc1S(=O)(=O)Nc1cccc(C(F)(F)F)c1 [Example 1.426]
IC50: 2000 to 20000 nM

CCOc1cc(NC(=O)[C@@H](O)c2ccccc2)ccc1S(=O)(=O)Nc1ccc(C2CC2)c(OC(F)(F)F)c1 [Example 1.556]
IC50: 200 to 750 nM

CCOC(=O)[C@H]1CC=CC[C@@H]1C(=O)Nc1ccc(S(=O)(=O)Nc2cccc(OC(F)(F)F)c2)c(OCC)c1 [Example 1.138]
IC50: ≤ 200 nM

COCC1(C(=O)Nc2ccc(S(=O)(=O)Nc3cccc(C(F)(F)F)c3)c(C)c2)CC1 [Example 1.424]
IC50: 2000 to 20000 nM

CCOc1cc(NC(=O)[C@@H](O)C(C)C)ccc1S(=O)(=O)Nc1cccc(C(F)(F)F)c1F [Example 1.075]
IC50: 2000 to 20000 nM

CCOc1cc(NC(=O)CC(O)c2ccnn2C)ccc1S(=O)(=O)Nc1cccc(OC(F)(F)F)c1 (stereo not shown) [Example 1.060]
IC50: 750 to 2000 nM

CCOc1cc(NC(=O)[C@@H](CO)c2ccccc2)ccc1S(=O)(=O)Nc1cccc(C2CC2)c1 [Example 1.080]
IC50: ≤ 200 nM

COc1cc(NC(=O)C2NC3CCC2C3)ccc1S(=O)(=O)Nc1cccc(C(F)(F)F)c1 (stereo not shown) [Example 1.472]
IC50: 2000 to 20000 nM

CCOc1cc(NC(=O)[C@@H](N)C2CC2)ccc1S(=O)(=O)Nc1cccc(OC(F)(F)F)c1 [Example 1.393]
IC50: ≤ 200 nM

CCOc1cc(NC(=O)C2CC=CC2)ccc1S(=O)(=O)Nc1cccc(OC(F)(F)F)c1 [Example 1.319]
IC50: 750 to 2000 nM

N#Cc1cc(NC(=O)[C@@H](CO)c2ccccc2)ccc1S(=O)(=O)Nc1cccc(OC(F)(F)F)c1 [Example 1.024]
IC50: ≤ 200 nM

O=C(Nc1ccc(S(=O)(=O)Nc2cccc(OC(F)(F)F)c2)c(F)c1)C(CO)c1ccccc1 (stereo not shown) [Example 1.395]
IC50: 750 to 2000 nM

COc1cc(NC(=O)C2CC3CCC32O)ccc1S(=O)(=O)Nc1cccc(C(F)(F)F)c1 (stereo not shown) [Example 1.035]
IC50: 200 to 750 nM

C=C(C)CC(CCO)C(=O)Nc1ccc(S(=O)(=O)Nc2cccc(OC(F)(F)F)c2)c(OCC)c1 (stereo not shown) [Example 1.180]
IC50: ≤ 200 nM

COc1cc(NC(=O)C2C3CCC(C3)N2C(=O)OC(C)(C)C)ccc1S(=O)(=O)Nc1cccc(C(F)(F)F)c1 (stereo not shown) [Example 1.506]
IC50: 750 to 2000 nM

CCOc1cc(NC(=O)[C@@H](CO)c2ccccc2)ccc1S(=O)(=O)Nc1cccc(OC)c1C [Example 1.045]
IC50: 2000 to 20000 nM

COc1cc(NC(=O)[C@@H]2CCC[C@@H]2N)ccc1S(=O)(=O)Nc1cccc(C(F)(F)F)c1 [Example 1.347]
IC50: 2000 to 20000 nM

CCOc1cc(NC(=O)C(CN)c2ccccc2)ccc1S(=O)(=O)Nc1cccc(OC(F)(F)F)c1 (stereo not shown) [Example 1.104]
IC50: ≤ 200 nM

CCOc1cc(NC(=O)C(CC2CC2)C(=O)O)ccc1S(=O)(=O)Nc1cccc(OC(F)(F)F)c1 (stereo not shown) [Example 1.013]
IC50: ≤ 200 nM

CCOc1cc(NC(=O)C2CCC(=O)N2C)ccc1S(=O)(=O)Nc1cccc(OC(F)(F)F)c1 (stereo not shown) [Example 1.081]
IC50: 750 to 2000 nM

CCOc1cc(NC(=O)C2CCC(O)C2)ccc1S(=O)(=O)Nc1cccc(OC(F)(F)F)c1 (stereo not shown) [Example 1.373]
IC50: 750 to 2000 nM

CCOc1cc(NC(=O)C2CCNCC2)ccc1S(=O)(=O)Nc1cccc(OC(F)(F)F)c1 [Example 1.427]
IC50: 2000 to 20000 nM

COc1cc(NC(=O)c2ccnn2C)ccc1S(=O)(=O)Nc1ccc2c(c1)OC(F)(F)O2 [Example 1.582]
IC50: 750 to 2000 nM

COc1cc(NC(=O)[C@@H]2C=CCN2)ccc1S(=O)(=O)Nc1cccc(C(F)(F)F)c1 [Example 1.197]
IC50: 750 to 2000 nM

Cc1cc(NC(=O)[C@@H](CO)C2CC2)ccc1S(=O)(=O)Nc1cccc(OC(F)(F)F)c1 [Example 1.079]
IC50: ≤ 200 nM

CCOc1cc(NC(=O)[C@@H](NS(C)(=O)=O)C(C)CC)ccc1S(=O)(=O)Nc1cccc(OC(F)(F)F)c1 (stereo partly shown) [Example 1.367]
IC50: 2000 to 20000 nM

CCOc1cc(NC(=O)[C@H]2[C@H](C)COC[C@@H]2C)ccc1S(=O)(=O)Nc1cccc(OC(F)(F)F)c1 [Example 1.305]
IC50: ≤ 200 nM

CCOc1cc(NC(=O)[C@@H]2CCCCC[C@@H]2O)ccc1S(=O)(=O)Nc1cccc(OC(F)(F)F)c1 [Example 1.404]
IC50: ≤ 200 nM

CCOc1cc(NC(=O)[C@@H](O)C(C)(C)C)ccc1S(=O)(=O)Nc1cccc(OC(F)(F)F)c1 [Example 1.577]
IC50: ≤ 200 nM

CCCOc1cc(NC(=O)[C@@H](O)C(C)C)ccc1S(=O)(=O)Nc1cccc(OC(F)(F)F)c1 [Example 1.034]
IC50: ≤ 200 nM

CCOc1cc(NC(=O)C2CCC(=O)N(CC)C2)ccc1S(=O)(=O)Nc1cccc(OC(F)(F)F)c1 (stereo not shown) [Example 1.120]
IC50: 2000 to 20000 nM

CCOc1cc(NC(=O)[C@@H](O)C(C)C)ccc1S(=O)(=O)Nc1ccc(C)c(Cl)c1 [Example 1.368]
IC50: ≤ 200 nM

CCOc1cc(NC(=O)[C@H]2CCOC[C@H]2CC)ccc1S(=O)(=O)Nc1cccc(OC(F)(F)F)c1 (racemic) [Example 1.233]
IC50: ≤ 200 nM

COc1cc(NC(=O)CC2CCCC2)ccc1S(=O)(=O)Nc1cccc(C(F)(F)F)c1 [Example 1.069]
IC50: 200 to 750 nM

C=Cc1cc(NS(=O)(=O)c2ccc(NC(=O)[C@@H](CO)C(C)C)cc2OCC)ccc1C [Example 1.548]
IC50: ≤ 200 nM

Cc1cc(NC(=O)C2CCCOC2)ccc1S(=O)(=O)Nc1cccc(C(F)(F)F)c1 (stereo not shown) [Example 1.478]
IC50: 750 to 2000 nM

COc1cc(NC(=O)c2ccnn2C)ccc1S(=O)(=O)Nc1ccc(Br)c(OC(F)(F)F)c1 [Example 1.397]
IC50: ≤ 200 nM

CCOc1cc(NC(=O)[C@@H](CO)c2ccccc2)ccc1S(=O)(=O)Nc1ccc2c(c1)OC(F)(F)O2 [Example 1.121]
IC50: 2000 to 20000 nM

CCOc1cc(NC(=O)C(C(=O)O)C2CCC2)ccc1S(=O)(=O)Nc1cccc(OC(F)(F)F)c1 (stereo not shown) [Example 1.218]
IC50: ≤ 200 nM

CCOc1cc(NC(=O)C2CCOCC2)ccc1S(=O)(=O)Nc1ccc(C)c(OC(F)(F)F)c1 [Example 1.123]
IC50: ≤ 200 nM

CCOc1cc(NC(=O)[C@@H](CO)c2ccccc2)ccc1S(=O)(=O)Nc1ccc(CO)c(C(F)(F)F)c1 [Example 1.388]
IC50: 2000 to 20000 nM

CCOc1cc(NC(=O)[C@@H](CO)c2ccccc2)ccc1S(=O)(=O)Nc1cccc(C(C)C)c1 [Example 1.541]
IC50: ≤ 200 nM

COCc1cc(NC(=O)[C@@H](CO)c2ccccc2)ccc1S(=O)(=O)Nc1cccc(OC(F)(F)F)c1 [Example 1.143]
IC50: ≤ 200 nM

CCCc1cc(NC(=O)[C@@H](CO)C(C)C)ccc1S(=O)(=O)Nc1cccc(OC(F)(F)F)c1 [Example 1.311]
IC50: ≤ 200 nM

Cc1cc(NC(=O)c2cccc(F)c2)ccc1S(=O)(=O)Nc1cccc(C(F)(F)F)c1 [Example 1.380]
IC50: 200 to 750 nM

CC(C)c1cc(NC(=O)c2ccnn2C)ccc1S(=O)(=O)Nc1cccc(C(F)(F)F)c1 [Example 1.384]
IC50: 200 to 750 nM

Cc1cc(NC(=O)c2ccn(C)n2)ccc1S(=O)(=O)Nc1cccc(C(F)(F)F)c1 [Example 1.001]
IC50: 2000 to 20000 nM

Cc1cc(NC(=O)C2CCOCC2)ccc1S(=O)(=O)Nc1cccc(C(F)(F)F)c1 [Example 1.500]
IC50: 200 to 750 nM

COc1cc(NC(=O)CC2CCCCC2)ccc1S(=O)(=O)Nc1cccc(C(F)(F)F)c1 [Example 1.343]
IC50: 750 to 2000 nM

Cc1cc(NC(=O)[C@@H](O)C(C)C)ccc1S(=O)(=O)Nc1cccc(OC(F)(F)F)c1 [Example 1.322]
IC50: ≤ 200 nM
